Measured values taken from ChEMBL document CHEMBL3351798, “Discovery of the CCR1 antagonist, BMS-817399, for the treatment of rheumatoid arthritis” (J Med Chem, 2014).

Assays:
[1] = target: T1, C-C chemokine receptor type 1 (Homo sapiens, UniProt P32246); experiment: Displacement of [125I]MIP-1alpha from CCR1 in human THP1 cells; assay type: cell-based, THP-1
T1 sequence (P32246 whole entry): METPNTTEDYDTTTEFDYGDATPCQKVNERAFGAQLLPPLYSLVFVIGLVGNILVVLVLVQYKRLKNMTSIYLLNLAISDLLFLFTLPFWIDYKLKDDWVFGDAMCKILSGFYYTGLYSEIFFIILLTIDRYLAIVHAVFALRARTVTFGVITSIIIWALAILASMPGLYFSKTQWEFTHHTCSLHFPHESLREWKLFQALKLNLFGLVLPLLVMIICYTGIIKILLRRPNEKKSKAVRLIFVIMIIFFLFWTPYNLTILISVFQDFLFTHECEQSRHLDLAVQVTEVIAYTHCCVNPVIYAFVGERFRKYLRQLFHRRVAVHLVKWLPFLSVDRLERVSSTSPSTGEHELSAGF

[2] = target: T2, Nuclear receptor subfamily 1 group I member 2 (Homo sapiens, UniProt O75469); experiment: Transactivation of human full-length PXR transfected in human HepG2 cells after 24 hrs by luciferase reporter gene assay; assay type: cell-based; conditions: for EC20: human, hepg2, 24 h
T2 sequence (O75469 whole entry): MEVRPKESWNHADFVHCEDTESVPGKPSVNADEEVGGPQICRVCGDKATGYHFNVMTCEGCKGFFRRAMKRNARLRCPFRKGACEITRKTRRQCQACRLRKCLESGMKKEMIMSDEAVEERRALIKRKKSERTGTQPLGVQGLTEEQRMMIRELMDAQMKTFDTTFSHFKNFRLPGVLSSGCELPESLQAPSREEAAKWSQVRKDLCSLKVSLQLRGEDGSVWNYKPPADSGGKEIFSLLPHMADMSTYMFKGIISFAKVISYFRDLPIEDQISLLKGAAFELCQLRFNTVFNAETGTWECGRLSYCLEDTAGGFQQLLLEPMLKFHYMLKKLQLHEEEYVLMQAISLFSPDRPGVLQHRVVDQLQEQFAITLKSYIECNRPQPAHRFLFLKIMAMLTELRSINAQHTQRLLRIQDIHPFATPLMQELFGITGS

[3] = Metabolic stability in human liver microsomes assessed as compound remaining at 0.5 uM after 60 mins by UV-LC/MS analysis; assay type: ADME; conditions: read-out: Stability
[4] = Metabolic stability in rat liver microsomes assessed as compound remaining at 0.5 uM after 60 mins by UV-LC/MS analysis; assay type: ADME; conditions: read-out: Stability
[5] = Metabolic stability in mouse liver microsomes assessed as compound remaining at 0.5 uM after 60 mins by UV-LC/MS analysis; assay type: ADME; conditions: read-out: Stability
[6] = Metabolic stability in human liver microsomes assessed as compound remaining at 3 uM after 60 mins by UV-LC/MS analysis; assay type: ADME; conditions: read-out: Stability
[7] = Metabolic stability in rat liver microsomes assessed as compound remaining at 3 uM after 60 mins by UV-LC/MS analysis; assay type: ADME; conditions: read-out: Stability
[8] = Metabolic stability in mouse liver microsomes assessed as compound remaining at 3 uM after 60 mins by UV-LC/MS analysis; assay type: ADME; conditions: read-out: Stability

| Structure (SMILES) | IC50 [1] [nM] | EC50 [2] [nM] | remaining at 1 h, 0.5 µM [3] [%] | remaining at 1 h, 0.5 µM [4] [%] | remaining at 1 h, 0.5 µM [5] [%] | EC20 [2] [nM] | remaining at 1 h, 3 µM [6] [%] | remaining at 1 h, 3 µM [7] [%] | remaining at 1 h, 3 µM [8] [%] |
| --- | --- | --- | --- | --- | --- | --- | --- | --- | --- |
| CC(C)[C@@H](NC(=O)CCC(C)(C)O)C(=O)N1CC[C@](O)(c2ccc(Cl)cc2)C(C)(C)C1 | 2 | 25000 | 91 | 35 | 74 | – | – | – | – |
| CC(C)[C@@H](NC(=O)NCc1ccccc1)C(=O)N1CC[C@](O)(c2ccc(Cl)cc2)C(C)(C)C1 | 1 | – | – | – | – | 2200 | 3 | 1 | 2 |
| CC(C)[C@@H](NC(=O)CC(C)(C)O)C(=O)N1CC[C@](O)(c2ccc(Cl)cc2)C(C)(C)C1 | 3 | 2300 | – | – | – | – | 100 | 84 | 100 |
| CC(C)[C@@H](NC(=O)N[C@@H]1CC[C@@H](O)C1)C(=O)N1CC[C@](O)(c2ccc(Cl)cc2)C(C)(C)C1 | 4 | > 50000 | – | – | – | – | 100 | 84 | 100 |
| CC(C)[C@@H](NC(=O)NC[C@@H](C)O)C(=O)N1CC[C@](O)(c2ccc(Cl)cc2)C(C)(C)C1 | 2 | > 25000 | 88 | 78 | 86 | – | – | – | – |
| CC(C)[C@@H](NC(=O)Nc1ccccc1)C(=O)N1CC[C@](O)(c2ccc(Cl)cc2)C(C)(C)C1 | 20 | – | – | – | – | – | – | – | – |
| CC(C)[C@@H](NC(=O)NC[C@H](C)O)C(=O)N1CC[C@](O)(c2ccc(Cl)cc2)C(C)(C)C1 | 2 | > 25000 | 88 | 79 | 95 | – | – | – | – |
| CC(C)[C@@H](NC(=O)C[C@H](C)O)C(=O)N1CC[C@](O)(c2ccc(Cl)cc2)C(C)(C)C1 | 11 | – | – | – | – | – | – | – | – |
| CC(C)[C@@H](NC(=O)NC1CCCC1)C(=O)N1CC[C@](O)(c2ccc(Cl)cc2)C(C)(C)C1 | 2 | – | – | – | – | 7100 | 77 | 57 | 68 |
| CC(C)[C@@H](NC(=O)N[C@@H]1CC[C@H](O)C1)C(=O)N1CC[C@](O)(c2ccc(Cl)cc2)C(C)(C)C1 | 2 | > 50000 | – | – | – | – | 76 | 75 | 86 |
| CC[C@@H](C)NC(=O)N[C@@H](C(=O)N1CC[C@](O)(c2ccc(Cl)cc2)C(C)(C)C1)C(C)C | 3 | – | – | – | – | 5200 | 59 | 85 | 72 |
| CC(C)[C@@H](NC(=O)C[C@@H](C)O)C(=O)N1CC[C@](O)(c2ccc(Cl)cc2)C(C)(C)C1 | 2 | 7800 | – | – | – | – | 87 | 79 | 85 |
| CC[C@H](C)NC(=O)N[C@@H](C(=O)N1CC[C@](O)(c2ccc(Cl)cc2)C(C)(C)C1)C(C)C | 2 | – | – | – | – | 8700 | 65 | 89 | 87 |
| CC(C)[C@@H](NC(=O)N[C@H]1CC[C@@H](O)C1)C(=O)N1CC[C@](O)(c2ccc(Cl)cc2)C(C)(C)C1 | 3 | 19000 | – | – | – | – | 92 | 83 | 100 |
| CC(C)[C@@H](NC(=O)N1CCCC1)C(=O)N1CC[C@](O)(c2ccc(Cl)cc2)C(C)(C)C1 | 9 | – | – | – | – | 800 | 2 | 11 | 19 |
| CC(C)[C@@H](NC(=O)N[C@H]1CC[C@H](O)C1)C(=O)N1CC[C@](O)(c2ccc(Cl)cc2)C(C)(C)C1 | 3 | 5700 | – | – | – | – | 99 | 96 | 100 |
